# Measurements reported in US20220265629A1, “TREATMENT OF SYSTOLIC DYSFUNCTION AND HEART FAILURE WITH REDUCED EJECTION FRACTION WITH THE COMPOUND (R)-4-(1-((3-(DIFLUOROMETHYL)-1-METHYL-1H-PYRAZOL-4-YL)SULFONYL)-1-FLUOROETHYL)-N-(ISOXAZOL-3-YL)PIPERIDINE-1-CARBOXAMIDE” (MyoKardia, Inc., priority 2019, published 2022).
# Like-named read-outs stand apart in the source and are kept apart here.
# Assay: Single ascending oral dose study in healthy volunteers: plasma pharmacokinetics
# Format: in vivo, human
# Settings: plasma, oral; for concentration at 6 h / concentration at 12 h / concentration at 24 h / concentration at 48 h / concentration at 72 h / AUC(0-t) / AUC(0-inf) / Cmax / half-life / MRT / Tmax / Vd/F: human; for concentration at 12 h: 12 Hours Postdose; for concentration at 24 h: 24 Hours Postdose; for concentration at 48 h: 48 Hours Postdose; for concentration at 72 h: 72 Hours Postdose
# Description: This example describes the first-in-human study of Compound I. Based on its mechanism of action, Compound I may offer a targeted therapy for patients with DCM caused by genetic or nongenetic mechanisms. The study was a randomized, double-blind, placebo-controlled, sequential group, single-ascending (oral) close study in healthy subjects aged 18-55 years. Eight dosing cohorts, each comprising eight healthy subjects, were enrolled. Within each cohort, subjects were randomized 6:2 to Compound I:placebo.
# Subjects were resident at the clinical site for up to 5 days and 4 nights, from Day −1 (the day before dosing) to Day 4, and received a single dose of Compound I or placebo on Day 1. ECG telemetry was initiated 1 hour preclose and continued through 48 hours postclose (Day 3). Any subject with a preclose resting HR≥80 beats per minute was considered ineligible and not treated. […] Subjects returned for a safety follow-up visit 7 days (±1 day) after dosing.
# All randomized study subjects received either Compound I or matching placebo as a single oral dose after a fasting period of at least 6 hours. Compound I drug substance is a crystalline, free-base, synthetic molecule with a molecular weight of 435.4 g/mol.
# Compound I was provided as a powder for oral suspension. Placebo was provided as calcium carbonate powder. Both treatments were closed orally as a suspension. The suspension was made using Ora-Plus® suspending vehicle (Perrigo) and a cherry syrup flavoring vehicle (Humco), mixed 50% to 50%. The suspension was followed by approximately 100 mL water. The suspension was made up within 14 days from the time in which it was closed which was consistent with the stability data on the suspension. The suspension was made up so the volume administered to the subjects who received Compound I was the same at 20 mL.
# Each subject received a close according to the cohort in which they were enrolled. Cohorts were enrolled sequentially, with each cohort receiving an escalated dose of Compound I. The closes administered were 3 mg, 10 mg, 25 mg, 50 mg, 100 mg, 175 mg, 350 mg, and 525 mg, respectively.
# The concentrations of Compound I in human plasma and urine were quantitated by high performance liquid chromatography with tandem mass spectrometric detection (LC MS/MS) (Biological sample analysis study report Alturas AD17-726). Plasma samples were extracted by protein precipitation with acetonitrile containing internal standard MYK-5654. The calibration curves were linear over concentration range of 0.500 to 1000 ng/mL with a lower limit of quantification (LLOQ) of 0.500 ng/mL.
# The PK Population included all subjects who received Compound I. Blood samples were collected for PK assessments. The actual timing of the samples may have been modified and/or up to an additional 2 samples may have been requested by the SRC after review of the data from previous cohorts. It was important that PK sampling occurred as closely as possible to the scheduled time (±10%). Both blood and urine samples were used for PK assessments.
# In addition, for subjects who received placebo, a single plasma sample near the predicted tmax of Compound I was evaluated to confirm the lack of circulating Compound I. Plasma concentration data for Compound I was summarized using descriptive statistics, including mean, standard deviation (SD), median, minimum, and maximum values, and percent coefficient of variation. Other PK parameters included (but were not limited to) Cmax, tmax, AUC, t1/2, and MRT. Additionally, the apparent terminal-phase terminal half-life was calculated. The close proportionality of AUC and Cmax was explored.
# [1] = 350 mg, 350 mg, read-out: Plasma concentration, Geometric Mean
# [2] = 350 mg, 350 mg, read-out: Plasma concentration, Mean
# [3] = 350 mg, 350 mg, read-out: Plasma concentration, Median
# [4] = 525 mg, 525 mg, read-out: Plasma concentration, Geometric Mean
# [5] = 525 mg, 525 mg, read-out: Plasma concentration, Mean
# [6] = 525 mg, 525 mg, read-out: Plasma concentration, Median
# [7] = 350 mg + 525 mg, read-out: Plasma concentration, Geometric Mean
# [8] = 350 mg + 525 mg, read-out: Plasma concentration, Mean
# [9] = 350 mg + 525 mg, read-out: Plasma concentration, Median
smiles,measurement,setting,value
"Cn1cc(S(=O)(=O)[C@@](C)(F)C2CCN(C(=O)Nc3ccon3)CC2)c(C(F)F)n1 [Compound I, (R)-4-(1-((3-(difluoromethyl)-1-methyl-1H-pyrazol-4-yl)sulfonyl)-1-fluoroethyl)-N-(isoxazol-3-yl)piperidine-1-carboxamide]",concentration at 6 h,"350 mg, 6 Hours Postdose, 350 mg, read-out: Plasma concentration, Mean",2660 ng/mL
same,concentration at 6 h,"350 mg, 6 Hours Postdose, 350 mg, read-out: Plasma concentration, Median",2550 ng/mL
same,concentration at 12 h,[1],2090 ng/mL
same,concentration at 12 h,[2],2140 ng/mL
same,concentration at 12 h,[3],2120 ng/mL
same,concentration at 24 h,[1],1280 ng/mL
same,concentration at 24 h,[2],1320 ng/mL
same,concentration at 24 h,[3],1340 ng/mL
same,concentration at 48 h,[1],329 ng/mL
same,concentration at 48 h,[2],373 ng/mL
same,concentration at 48 h,[3],350 ng/mL
same,concentration at 72 h,[1],101 ng/mL
same,concentration at 72 h,[2],128 ng/mL
same,concentration at 72 h,[3],111 ng/mL
same,AUC(0-t),"350 mg, read-out: AUC0-24, Geometric Mean",44700 ng·h/mL
same,AUC(0-t),"350 mg, read-out: AUC0-24, Mean",45600 ng·h/mL
same,AUC(0-t),"350 mg, read-out: AUC0-24, Median",45000 ng·h/mL
same,AUC(0-t),"350 mg, read-out: AUC0-48, Geometric Mean",64200 ng·h/mL
same,AUC(0-t),"350 mg, read-out: AUC0-48, Mean",65900 ng·h/mL
same,AUC(0-t),"350 mg, read-out: AUC0-48, Median",66400 ng·h/mL
same,AUC(0-t),"350 mg, read-out: AUC0-last, Geometric Mean",73200 ng·h/mL
same,AUC(0-t),"350 mg, read-out: AUC0-last, Mean",76300 ng·h/mL
same,AUC(0-t),"350 mg, read-out: AUC0-last, Median",76200 ng·h/mL
same,AUC(0-inf),"350 mg, read-out: AUC0-∞, Geometric Mean",73600 ng·h/mL
same,AUC(0-inf),"350 mg, read-out: AUC0-∞, Mean",76700 ng·h/mL
same,AUC(0-inf),"350 mg, read-out: AUC0-∞, Median",76200 ng·h/mL
same,Cmax,"350 mg, read-out: Cmax, Geometric Mean",2790 ng/mL
same,Cmax,"350 mg, read-out: Cmax, Mean",2820 ng/mL
same,Cmax,"350 mg, read-out: Cmax, Median",2900 ng/mL
same,half-life,"350 mg, read-out: Half-Life Lambda Z, Geometric Mean (converted)",14.3 h
same,half-life,"350 mg, read-out: Half-Life Lambda Z, Mean (converted)",14.7 h
same,half-life,"350 mg, read-out: Half-Life Lambda Z, Median (converted)",14.5 h
same,MRT,"350 mg, read-out: Mean Residence Time, Geometric Mean",22.4 h
same,MRT,"350 mg, read-out: Mean Residence Time, Mean",22.8 h
same,MRT,"350 mg, read-out: Mean Residence Time, Median",22.7 h
same,Tmax,"350 mg, read-out: Tmax, Geometric Mean",4.84 h
same,Tmax,"350 mg, read-out: Tmax, Mean",4.95 h
same,Tmax,"350 mg, read-out: Tmax, Median",5 h
same,Vd/F,"350 mg, read-out: Vz/F, Geometric Mean",98.3 L
same,Vd/F,"350 mg, read-out: Vz/F, Mean",98.8 L
same,Vd/F,"350 mg, read-out: Vz/F, Median",98.4 L
same,concentration at 6 h,"525 mg, 6 Hours Postdose, 525 mg, read-out: Plasma concentration, Geometric Mean",2160 ng/mL
same,concentration at 6 h,"525 mg, 6 Hours Postdose, 525 mg, read-out: Plasma concentration, Mean",2220 ng/mL
same,concentration at 6 h,"525 mg, 6 Hours Postdose, 525 mg, read-out: Plasma concentration, Median",2220 ng/mL
same,concentration at 12 h,[4],1780 ng/mL
same,concentration at 12 h,[5],1840 ng/mL
same,concentration at 12 h,[6],1780 ng/mL
same,concentration at 24 h,[4],1190 ng/mL
same,concentration at 24 h,[5],1230 ng/mL
same,concentration at 24 h,[6],1180 ng/mL
same,concentration at 48 h,[4],420 ng/mL
same,concentration at 48 h,[5],465 ng/mL
same,concentration at 48 h,[6],426 ng/mL
same,concentration at 72 h,[4],116 ng/mL
same,concentration at 72 h,[5],147 ng/mL
same,concentration at 72 h,[6],122 ng/mL
same,AUC(0-t),"525 mg, read-out: AUC0-24, Geometric Mean",37500 ng·h/mL
same,AUC(0-t),"525 mg, read-out: AUC0-24, Mean",38500 ng·h/mL
same,AUC(0-t),"525 mg, read-out: AUC0-24, Median",38200 ng·h/mL
same,AUC(0-t),"525 mg, read-out: AUC0-48, Geometric Mean",57000 ng·h/mL
same,AUC(0-t),"525 mg, read-out: AUC0-48, Mean",58900 ng·h/mL
same,AUC(0-t),"525 mg, read-out: AUC0-48, Median",57400 ng·h/mL
same,AUC(0-t),"525 mg, read-out: AUC0-last, Geometric Mean",68100 ng·h/mL
same,AUC(0-t),"525 mg, read-out: AUC0-last, Mean",71700 ng·h/mL
same,AUC(0-t),"525 mg, read-out: AUC0-last, Median",68600 ng·h/mL
same,AUC(0-inf),"525 mg, read-out: AUC0-∞, Geometric Mean",68500 ng·h/mL
same,AUC(0-inf),"525 mg, read-out: AUC0-∞, Mean",72100 ng·h/mL
same,AUC(0-inf),"525 mg, read-out: AUC0-∞, Median",68800 ng·h/mL
same,Cmax,"525 mg, read-out: Cmax, Geometric Mean",2290 ng/mL
same,Cmax,"525 mg, read-out: Cmax, Mean",2350 ng/mL
same,Cmax,"525 mg, read-out: Cmax, Median",2240 ng/mL
same,half-life,"525 mg, read-out: Half-Life Lambda Z, Geometric Mean (converted)",14.7 h
same,half-life,"525 mg, read-out: Half-Life Lambda Z, Mean (converted)",15.1 h
same,half-life,"525 mg, read-out: Half-Life Lambda Z, Median (converted)",13.8 h
same,MRT,"525 mg, read-out: Mean Residence Time, Geometric Mean",25.4 h
same,MRT,"525 mg, read-out: Mean Residence Time, Mean",25.8 h
same,MRT,"525 mg, read-out: Mean Residence Time, Median",25 h
same,Tmax,"525 mg, read-out: Tmax, Geometric Mean",4.94 h
same,Tmax,"525 mg, read-out: Tmax, Mean",4.97 h
same,Tmax,"525 mg, read-out: Tmax, Median",5 h
same,Vd/F,"525 mg, read-out: Vz/F, Geometric Mean",162 L
same,Vd/F,"525 mg, read-out: Vz/F, Mean",166 L
same,Vd/F,"525 mg, read-out: Vz/F, Median",171 L
same,concentration at 6 h,"6 Hours Postdose, 350 mg + 525 mg, read-out: Plasma concentration, Geometric Mean",2380 ng/mL
same,concentration at 6 h,"6 Hours Postdose, 350 mg + 525 mg, read-out: Plasma concentration, Mean",2440 ng/mL
same,concentration at 6 h,"6 Hours Postdose, 350 mg + 525 mg, read-out: Plasma concentration, Median",2350 ng/mL
same,concentration at 12 h,[7],1930 ng/mL
same,concentration at 12 h,[8],1990 ng/mL
same,concentration at 12 h,[9],1860 ng/mL
same,concentration at 24 h,[7],1230 ng/mL
same,concentration at 24 h,[8],1280 ng/mL
same,concentration at 24 h,[9],1210 ng/mL
same,concentration at 48 h,[7],372 ng/mL
same,concentration at 48 h,[8],419 ng/mL
same,concentration at 48 h,[9],415 ng/mL
same,concentration at 72 h,[7],108 ng/mL
same,concentration at 72 h,[8],137 ng/mL
same,concentration at 72 h,[9],122 ng/mL
same,concentration at 6 h,"6 hours post-dose, bin 0-1000 ng/mL (n = 29), read-out: Plasma Concentration, Mean",334 ng/mL
same,concentration at 6 h,"6 hours post-dose, bin 0-1000 ng/mL (n = 29), read-out: Plasma Concentration, Median",286 ng/mL
same,concentration at 6 h,"6 hours post-dose, bin 1001-2000 ng/mL (n = 9), read-out: Plasma Concentration, Mean",1360 ng/mL
same,concentration at 6 h,"6 hours post-dose, bin 1001-2000 ng/mL (n = 9), read-out: Plasma Concentration, Median",1270 ng/mL
same,concentration at 6 h,"6 hours post-dose, bin >2000 ng/mL (n = 10), read-out: Plasma Concentration, Mean",2590 ng/mL
same,concentration at 6 h,"6 hours post-dose, bin >2000 ng/mL (n = 10), read-out: Plasma Concentration, Median",2420 ng/mL
same,half-life,"across the dose groups, read-out: terminal t1/2",11 to 16 h
same,half-life,"combined 350 and 525 mg group, read-out: t1/2, range",11 to 22 h
same,Tmax,"combined 350 and 525 mg group, read-out: tmax, range",3 to 6 h
same,Vd/F,"doses ranging from 3 mg to 525 mg, read-out: volume of distribution (Vz/F)",58 to 166 L
same,Vd/F,"doses up to 175 mg, read-out: mean apparent volume of distribution (Vz/F)",~78 L
same,Tmax,"healthy volunteers, read-out: Tmax",4 to 6 h
same,half-life,"healthy volunteers, read-out: terminal t1/2 (half-life) (converted)",~15 h
same,Vd,1-compartmental model analysis of in vivo data in human,0.965 L/kg
same,clearance,"1-compartmental model analysis of in vivo data in human, read-out: CL (Human)",0.949 mL/min/kg
